Legend:
PI3Kδ = molecular target: T1, PI3Kδ (Homo sapiens, UniProt O00329); assay: PI3Kδ biochemical assay (HTS and selectivity assay protocol, [32P]ATP / PIP2 liposomes); conditions: Table 1, in vitro activity data for selected compounds; read-out: In Vitro I-50
T1 construct: FLAG; His tag (vector pFastbac HTb); made in house; host or cells: Sf21 insect cells (baculovirus, BAC-TO-BAC HT)
Protocol: The 3× substrate for the HTS contained 0.6 mM Na2ATP, 0.10 mCi/mL γ-[^32P]ATP (NEN, Pittsburgh, Pa.), 6 μM PIP2/PS liposomes (Avanti Polar Lipids, Inc., […].), in 20 mM HEPES, pH 7.4.
Subsequent selectivity assays were done similarly using the same 3× substrate stocks except they contained 0.05 mCi/mL γ[^32P]ATP and 3 mM PIP2. Subsequent selectivity assays also used the same 3× enzyme stocks, except they now contained 3 nM of any given PI3K isoform.
For all selectivity assays, the test compounds were weighed out and dissolved into 10-50 mM stocks in 100% DMSO (depending on their respective solubilities) and stored at −20° C. Compounds were thawed (to room temperature or 37° C.), diluted to 300 μM in water from which a 3-fold dilution series into water was done. From these dilutions, 20 μL was added into the assay wells alongside water blanks used for the enzyme (positive) control and the no enzyme (background) control.

basophils = assay: Basophil histamine release assay; type: cell-based; conditions: highest concentration (10,000 nM)
Protocol: Assessment of the effect of a compound of the invention on basophil function is tested using a conventional histamine release assay, generally in accordance with the method described in Miura et al., J Immunol, 162:4198-206 (1999). Briefly, enriched basophils are preincubated with test compounds at several concentrations from 0.1 nM to 1,000 nM for 10 min at 37° C. Then, polyclonal goat antihuman IgE (0.1 μg/mL) or fMLP is added, and allowed to incubate for an additional 30 min Histamine released into the supernatant is measured using an automated fluorometric technique.

T1 sequence (O00329 whole entry): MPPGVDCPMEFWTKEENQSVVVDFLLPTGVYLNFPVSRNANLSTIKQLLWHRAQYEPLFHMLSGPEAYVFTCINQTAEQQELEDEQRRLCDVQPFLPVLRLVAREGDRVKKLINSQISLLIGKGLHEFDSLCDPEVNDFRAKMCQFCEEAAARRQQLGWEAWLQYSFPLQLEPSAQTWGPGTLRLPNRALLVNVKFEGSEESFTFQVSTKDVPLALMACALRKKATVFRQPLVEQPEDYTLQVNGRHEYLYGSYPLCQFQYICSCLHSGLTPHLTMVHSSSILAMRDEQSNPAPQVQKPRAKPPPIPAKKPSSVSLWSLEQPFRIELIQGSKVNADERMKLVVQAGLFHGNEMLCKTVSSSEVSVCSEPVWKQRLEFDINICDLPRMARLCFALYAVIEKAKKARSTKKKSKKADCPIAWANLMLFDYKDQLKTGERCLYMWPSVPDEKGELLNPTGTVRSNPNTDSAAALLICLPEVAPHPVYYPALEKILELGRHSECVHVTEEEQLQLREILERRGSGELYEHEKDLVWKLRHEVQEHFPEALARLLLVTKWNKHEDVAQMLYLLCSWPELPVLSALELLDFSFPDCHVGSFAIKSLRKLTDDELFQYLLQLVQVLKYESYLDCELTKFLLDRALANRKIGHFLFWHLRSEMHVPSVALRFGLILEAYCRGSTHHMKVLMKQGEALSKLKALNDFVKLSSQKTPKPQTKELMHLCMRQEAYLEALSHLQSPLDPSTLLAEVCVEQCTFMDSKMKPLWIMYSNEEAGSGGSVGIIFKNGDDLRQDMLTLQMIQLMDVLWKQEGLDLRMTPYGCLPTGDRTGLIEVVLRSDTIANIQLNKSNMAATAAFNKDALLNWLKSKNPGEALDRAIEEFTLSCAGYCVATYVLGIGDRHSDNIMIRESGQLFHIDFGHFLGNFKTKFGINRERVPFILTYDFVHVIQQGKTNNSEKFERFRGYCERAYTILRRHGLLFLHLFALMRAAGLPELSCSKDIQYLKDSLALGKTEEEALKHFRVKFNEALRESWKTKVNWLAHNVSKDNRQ
T1 sequence (P27986 whole entry partner): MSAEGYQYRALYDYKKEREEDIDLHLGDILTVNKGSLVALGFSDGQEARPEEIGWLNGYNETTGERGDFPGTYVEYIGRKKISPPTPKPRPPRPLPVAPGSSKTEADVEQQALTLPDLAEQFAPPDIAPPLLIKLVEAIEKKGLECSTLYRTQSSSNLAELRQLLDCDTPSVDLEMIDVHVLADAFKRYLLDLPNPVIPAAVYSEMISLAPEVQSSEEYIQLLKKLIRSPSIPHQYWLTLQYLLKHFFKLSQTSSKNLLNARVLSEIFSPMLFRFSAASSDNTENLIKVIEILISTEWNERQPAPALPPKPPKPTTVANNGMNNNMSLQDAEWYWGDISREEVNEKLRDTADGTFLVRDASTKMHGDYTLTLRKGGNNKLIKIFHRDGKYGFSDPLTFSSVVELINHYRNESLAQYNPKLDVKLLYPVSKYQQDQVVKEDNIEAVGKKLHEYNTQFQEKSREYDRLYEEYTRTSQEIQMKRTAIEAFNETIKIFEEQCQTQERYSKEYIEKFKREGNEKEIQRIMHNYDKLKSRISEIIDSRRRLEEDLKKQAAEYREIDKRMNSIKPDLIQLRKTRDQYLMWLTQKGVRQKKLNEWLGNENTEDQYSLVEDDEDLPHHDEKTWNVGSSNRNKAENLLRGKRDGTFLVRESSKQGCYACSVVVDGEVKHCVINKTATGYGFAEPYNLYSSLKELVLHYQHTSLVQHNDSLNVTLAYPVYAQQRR

CC(c1nc2c(c(Br)nn2C)c(=O)n1-c1ccccc1)n1cnc2c(N)ncnc21 (stereo not drawn) [Compound 1, 6-[1-(6-Amino-purin-9-yl)-ethyl]-3-bromo-1-methyl-5-phenyl-1,5-dihydro-pyrazolo[3,4-d]pyrimidin-4-one]
IC50 (PI3Kδ): 665 nM

CC(Sc1ncnc2[nH]cnc12)c1nc2c(c(Br)nn2C)c(=O)n1-c1ccccc1 (stereo not drawn) [Compound 2, 3-Bromo-1-methyl-5-phenyl-6-[1-(9H-purin-6-ylsulfanyl)-ethyl]-1,5-dihydro-pyrazolo[3,4-d]pyrimidin-4-one]
IC50 (PI3Kδ): 6000 nM

Cc1noc2nc(CSc3ncnc4[nH]cnc34)n(-c3ccccc3)c(=O)c12 [Compound 4, 3-Methyl-5-phenyl-6-(9H-purin-6-ylsulfanylmethyl)-5H-isoxazolo[5,4-d]pyrimidin-4-one]
IC50 (PI3Kδ): 1200 nM

Cc1noc2nc(Cn3cnc4c(N)ncnc43)n(-c3ccccc3)c(=O)c12 [Compound 5, 6-(6-Amino-purin-9-ylmethyl)-3-methyl-5-phenyl-5H-is oxazolo[5,4-d]pyrimidin-4-one]
IC50 (PI3Kδ): 6400 nM

CC(c1nc2cccnc2c(=O)n1-c1ccccc1)n1cnc2c(N)ncnc21 (stereo not drawn) [Compound 11]
IC50 (PI3Kδ): 665 nM

O=c1cc(N2CCOCC2)oc2c(-c3ccccc3)cccc12 [LY294002]
inhibition at 10 µM (basophils): ~100%

— patent US20110021541A1, “INHIBITORS OF HUMAN PHOSPHATIDYL-INOSITOL 3-KINASE DELTA” (priority 2007, published 2011)
